Measured values reported in patent publication EP0524173B1, “SOLUBILIZATION AND PURIFICATION OF THE GASTRIN RELEASING PEPTIDE RECEPTOR” (BERLEX LABORATORIES, INC., priority 1989, dated 1991).
Where a SMILES comes first, the peptide text is derived from it. [ ]: non-standard residue; d: D form. Nle = CCCC[C@H](N)C(=O)O

Legend:
[1] = target: T1, GRP receptor (Mus musculus, UniProt P21729); test: ^125I-GRP ligand binding assay, detergent solubilized Swiss 3T3 fibroblast membranes; conditions: for Solubilized Membranes Counts/minute Bound Measured as % of Total Added: 10 µM nucleotide added to control containing MgCl2, 0.075% CHAPS, 0.015% CHS, control 28
T1 construct: endogenous in cells; host or cells: mouse Swiss 3T3 fibroblasts (membranes; intact or solubilized with CHAPS/CHS)
Experimental: Swiss 3T3 fibroblast membranes, prepared in Example 1, were suspended at 15 mg protein/ml in 50 mM HEPES, pH 7.5, 1.0 mM EGTA, 100 mM NaCl, 0.25 M sucrose, 50 µg/ml leupeptin, 5 µg/ml pepstatin, 10 µg/ml aprotinin, 30 µg/ml bacitracin, and 0.5 mM phenylmethylsulfonyl fluoride. A mixture of 3-[(3cholamidopropyl) dimethylammonio]-1- propane sulfonate (CHAPS) and cholesteryl hemisuccinate (CHS) in a ratio of 10:1 was added slowly to yield a final concentration of 0.75% CHAPS. The extract was incubated at 21°C for 30 minutes, cooled to 4°C and the insoluble material was removed by centrifugation at 100,000 x gravity for 60 minutes.
For assays of detergent solubilized membrane extracts, the final CHAPS detergent concentration was adjusted to between 0.050% and 0.20%. The concentration of CHS was maintained at 1/5 to 1/10 the concentration of CHAPS. Samples were also prepared omitting the BSA. After incubation at 15°C for 30 minutes, samples were cooled to 0°C. Bound ligand (^125I-GRP:GRP receptor complex) was recovered by rapid filtration through polyethyleneimine treated Whatman GF/B filters, followed by four washes with 4 mls of ice cold Tris buffer (50 mM Tris/Cl, pH 7.5). The filters were counted in an Isodata 500 gamma counter.
Scatchard analysis of ^125I-GRP binding to intact and solubilized Swiss 3T3 membranes was done. One particular experiment is discussed below, where the binding parameters of the solubilized and the membrane bound form of the receptor are determined under similar conditions.

[2] = target: T1, GRP receptor; test: ^125I-GRP ligand binding assay, intact Swiss 3T3 fibroblast membranes; conditions: 5 µM nucleotide added to control containing MgCl2; control 28.9
Experimental: For assays of detergent solubilized membrane extracts, the final CHAPS detergent concentration was adjusted to between 0.050% and 0.20%. The concentration of CHS was maintained at 1/5 to 1/10 the concentration of CHAPS. Samples were also prepared omitting the BSA. After incubation at 15°C for 30 minutes, samples were cooled to 0°C. […] The filters were counted in an Isodata 500 gamma counter.
One particular experiment is discussed below, where the binding parameters of the solubilized and the membrane bound form of the receptor are determined under similar conditions.

T1 sequence (P21729 whole entry): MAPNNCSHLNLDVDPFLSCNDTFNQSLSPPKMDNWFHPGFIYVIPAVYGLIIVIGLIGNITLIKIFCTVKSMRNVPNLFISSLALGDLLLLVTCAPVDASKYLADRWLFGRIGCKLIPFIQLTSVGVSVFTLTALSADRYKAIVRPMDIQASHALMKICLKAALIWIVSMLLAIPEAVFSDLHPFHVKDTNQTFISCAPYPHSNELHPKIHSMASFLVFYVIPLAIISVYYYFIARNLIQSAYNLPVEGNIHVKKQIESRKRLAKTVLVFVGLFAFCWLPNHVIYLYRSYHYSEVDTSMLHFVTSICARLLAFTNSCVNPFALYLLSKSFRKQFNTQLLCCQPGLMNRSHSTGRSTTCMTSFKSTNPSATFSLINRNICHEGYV

Compound | Solubilized Membranes Counts/minute Bound Measured as % of Total Added [1] [%] | IC50 ([1]; unlabeled competitor peptide) [nM] | time at which binding to the soluble receptor leveled off ([1]; 15°C, remained constant for up to 2 hours) [min] | Intact Membranes Counts/minute Bound Measured as % of Total Added [2] [%]
3-(125Iodotyrosyl15) gastrin releasing peptide [^125I-GRP] |  |  | ≤ 20 | 
Nc1ncnc2c1ncn2[C@@H]1O[C@H](COP(=O)(O)OP(=O)(O)NP(=O)(O)O)[C@@H](O)[C@H]1O [AMPPNP] | 27.8 |  |  | 33.4
Nc1ncnc2c1ncn2[C@@H]1O[C@H](COP(=O)(O)OP(=O)(O)OP(=O)(O)O)[C@@H](O)[C@H]1O [ATP] |  |  |  | 29.7

Now from value to compound, other results behind:

Solubilized Membranes Counts/minute Bound Measured as % of Total Added [1] [%] | IC50 ([1]; unlabeled competitor peptide) [nM] | Compound | time at which binding to the soluble receptor leveled off ([1]; 15°C, remained constant for up to 2 hours) [min] | Intact Membranes Counts/minute Bound Measured as % of Total Added [2] [%]
26.5 |  | Nc1nc2c(ncn2[C@@H]2O[C@H](COP(=O)(O)OP(=O)(O)NP(=O)(O)O)[C@@H](O)[C@H]2O)c(=O)[nH]1 [GMPPNP] |  | 10.5
27.5 |  | Nc1nc2c(ncn2[C@@H]2O[C@H](COP(=O)(O)OP(=O)(O)OP(=O)(O)O)[C@@H](O)[C@H]2O)c(=O)[nH]1 [GTP] |  | 10.7
 | 0.3 | CCCC[C@H](NC(=O)[C@H](CC(C)C)NC(=O)[C@H](Cc1c[nH]cn1)NC(=O)CNC(=O)[C@@H](NC(=O)[C@H](C)NC(=O)[C@H](Cc1c[nH]c2ccccc12)NC(=O)[C@H](Cc1c[nH]cn1)NC(=O)[C@H](CC(N)=O)NC(=O)CNC(=O)[C@H](CCCNC(=N)N)NC(=O)[C@@H]1CCCN1C(=O)[C@H](Cc1ccc(O)cc1)NC(=O)[C@H](CCCC)NC(=O)[C@@H](N)CCCCN)C(C)C)C(N)=O [[Nle^14,27]GRP13-27] (H-K[Nle]YPRGNHWAVGHL[Nle]-NH2) |  | 
